Assay [1] addresses RBD domain of S protein of SARS-CoV-2 (Severe acute respiratory syndrome coronavirus 2, UniProt P0DTC2). Kind of assay: biochemical. The format is binding.
In assay [2] the target is binding interactions between RBD and ACE2 (Homo sapiens, UniProt Q9BYF1). Details: species or system SARS-CoV-2.
Another assay deals with ACE2. The conditions noted are these: read-out: IC50 (ACE2 inhibitor); cited from earlier work.

Here are results for three molecules from PMC8334341 (Acta Pharmacologica Sinica, 2021).

binding interactions between RBD and ACE2, sequence (Q9BYF1 whole entry, looked up): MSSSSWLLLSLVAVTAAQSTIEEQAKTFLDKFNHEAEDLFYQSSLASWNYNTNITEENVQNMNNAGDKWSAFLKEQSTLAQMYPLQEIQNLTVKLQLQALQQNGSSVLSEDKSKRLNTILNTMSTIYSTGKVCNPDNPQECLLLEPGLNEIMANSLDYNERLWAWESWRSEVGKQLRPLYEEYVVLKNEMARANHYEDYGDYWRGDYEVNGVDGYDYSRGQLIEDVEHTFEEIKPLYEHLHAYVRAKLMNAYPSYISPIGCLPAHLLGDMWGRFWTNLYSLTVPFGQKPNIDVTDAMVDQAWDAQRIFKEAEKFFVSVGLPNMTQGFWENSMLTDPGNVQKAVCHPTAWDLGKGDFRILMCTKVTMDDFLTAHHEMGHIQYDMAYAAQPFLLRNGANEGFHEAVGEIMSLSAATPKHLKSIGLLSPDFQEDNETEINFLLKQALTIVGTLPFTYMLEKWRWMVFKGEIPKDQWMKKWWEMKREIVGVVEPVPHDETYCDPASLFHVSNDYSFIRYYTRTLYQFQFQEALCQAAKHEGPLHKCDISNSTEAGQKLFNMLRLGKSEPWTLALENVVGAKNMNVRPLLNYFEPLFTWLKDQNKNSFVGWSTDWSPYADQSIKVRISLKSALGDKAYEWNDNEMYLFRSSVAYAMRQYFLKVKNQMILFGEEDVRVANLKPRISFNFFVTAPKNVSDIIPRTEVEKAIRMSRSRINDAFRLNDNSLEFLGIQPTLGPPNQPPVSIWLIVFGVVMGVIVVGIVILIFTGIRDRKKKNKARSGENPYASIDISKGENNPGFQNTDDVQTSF

By Kd is commonly meant a measure of binding affinity in units of concentration. Read a high Kd as weaker binding. Take `Nc1ncnc2c1ncn2[C@@H]1O[C@H](CO)C[C@H]1O` [CDCP, Cordycepin]: in assay [1], the Kd worked out at 20.5 µM.
`C=C[C@@H]1C2=CCOC(=O)C2=CO[C@H]1O[C@@H]1O[C@H](CO)[C@@H](O)[C@H](O)[C@H]1O` [GTCP, Gentiopicrin] showed a Kd in assay [1] of 29.6 µM.
By IC50 is commonly meant the concentration needed to halve the response being measured. As to `CC(C)C[C@H](N[C@@H](Cc1cncn1Cc1cc(Cl)cc(Cl)c1)C(=O)O)C(=O)O` [MLN-4760], the “effect on the binding affinity between RBD and ACE2” value in assay [2] is listed as “negligible effect”. Further, the concentration for half-maximal inhibition (IC50) with ACE2 was 0.00044 µM.
